Structures can show the parent of a compound that is named as a salt. Where two headings read alike, the source gives them in different places.
Test system: leptin production
Experiment: Enhancing activity for leptin production in adipocytes (ELISA)
Assay type: cell-based, rat
Settings: leptin concentration as % of control group; for activity at 1 µM / activity at 0.001 µM / activity at 0.01 µM / activity at 0.1 µM: Rattus norvegicus, Adipocyte, read-out: Facilitating activity to produce leptin; for activity at 0.001 µM: 1 nm; for activity at 0.01 µM: 10 nm; for activity at 0.1 µM / Facilitating activity to produce leptin: 100 nm
How it was run: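 Collagenase-dispersed epididymal adipocytes from 6-week-old male Wistar Imamichi rats, cultured in DMEM/F-12 (1:1) with test compound at final 1 µM, 100 nM, 10 nM or 1 nM (0.1% DMSO) for 24 h at 37 °C, 5% CO2. Leptin in filtrate measured by ELISA; activity = treated/DMSO-control leptin × 100 (%).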

N#Cc1cccc(NC(=O)c2cc([N+](=O)[O-])ccc2Cl)c1 [Example 21, N-(3-Cyanophenyl)-(2-chloro-5-nitrophenyl)carboxamide]
activity at 1 µM (24 h): 130% | activity at 0.001 µM (24 h): 116% | activity at 0.01 µM (24 h): 120% | activity at 0.1 µM (24 h): 150%

O=C(Nc1ccc([N+](=O)[O-])cc1)c1cc([N+](=O)[O-])ccc1Cl [Example 23, N-(4-Nitrophenyl)-(2-chloro-5-nitrophenyl)carboxamide]
activity at 1 µM (24 hr): 110% | activity at 0.001 µM (24 hr): 134% | activity at 0.01 µM (24 hr): 138% | activity at 0.1 µM (24 hr): 158%

O=C(Nc1ccc([N+](=O)[O-])cn1)c1cc([N+](=O)[O-])ccc1Cl [Example 24, N-(5-Nitropyridin-2-yl)-(2-chloro-5-nitrophenyl)carboxamide]
activity at 1 µM (24 hr): 144% | activity at 0.001 µM (24 hr): 112% | activity at 0.01 µM (24 hr): 121% | activity at 0.1 µM (24 hr): 143%

O=C(Nc1cccc([N+](=O)[O-])c1)c1cc([N+](=O)[O-])ccc1Cl [Example 25, N-(3-Nitrophenyl)-(2-chloro-5-nitrophenyl)carboxamide]
activity at 0.001 µM (24 hr): 113% | activity at 0.01 µM (24 hr): 118% | activity at 0.1 µM (24 hr): 156%

O=C(Nc1cc([N+](=O)[O-])ccc1Cl)c1cc([N+](=O)[O-])ccc1Cl [Example 28, N-(2-Chloro-5-nitrophenyl)-(2-chloro-5-nitrophenyl)carboxamide]
activity at 1 µM (24 hr): 108% | activity at 0.1 µM (24 hr): 120%

O=C(Nc1cccc(C(=O)N2CCCC2)c1)c1cc([N+](=O)[O-])ccc1Cl [Example 31]
Facilitating activity to produce leptin (24 hr): 116.9%

O=C(Nc1nc(-c2cccs2)cs1)c1cc([N+](=O)[O-])ccc1Cl [Example 36, N-[4-(2-Thienyl)thiazol-2-yl)-(2-chloro-5-nitrophenyl)carboxamide]
activity at 0.1 µM (24 h): 120%

O=C(Nc1nc(-c2ccc3ccccc3c2)cs1)c1cc([N+](=O)[O-])ccc1Cl [Example 42, N-[4-(2-Naphthyl)thiazol-2-yl)-(2-chloro-5-nitrophenyl)carboxamide]
activity at 1 µM (24 h): 127%

O=C(Nc1nc(-c2ccc(Cl)c(Cl)c2)cs1)c1cc([N+](=O)[O-])ccc1Cl [Example 43, N-[4-(3,4-Dichlorophenyl)thiazol-2-yl]-(2-chloro-5-nitrophenyl)carboxamide]
activity at 1 µM (24 h): 111% | activity at 0.1 µM (24 h): 112%

O=C(Nc1ccncc1)c1cc([N+](=O)[O-])ccc1Cl [Example 49, N-(4-Pyridyl)-(2-chloro-5-nitrophenyl)carboxamide]
activity at 1 µM (24 h): 121% | activity at 0.01 µM (24 h): 131% | activity at 0.1 µM (24 h): 133%

O=C(Nc1cnc2ccccc2c1)c1cc([N+](=O)[O-])ccc1Cl [Example 55, N-(3-Quinolinyl)-(2-chloro-5-nitrophenyl)carboxamide]
activity at 0.001 µM (24 h): 116% | activity at 0.01 µM (24 h): 115% | activity at 0.1 µM (24 h): 113%

O=C(Nc1ccc(Cl)nc1)c1cc([N+](=O)[O-])ccc1Cl [Example 62, N-(6-Chloropyridin-3-yl)-(2-chloro-5-nitrophenyl)carboxamide]
activity at 0.001 µM (24 h): 119% | activity at 0.01 µM (24 h): 115% | activity at 0.1 µM (24 h): 132%

O=C(Nc1ccc(NC(=O)c2cc([N+](=O)[O-])ccc2Cl)nc1)c1cc([N+](=O)[O-])ccc1Cl [Example 64, 2,5-bis(2-Chloro-5-nitrobenzoylamino)pyridine]
activity at 0.001 µM (24 hr): 110% | activity at 0.01 µM (24 hr): 112% | activity at 0.1 µM (24 hr): 119%

O=C(Nc1nc2cc(Cl)ccc2o1)c1cc([N+](=O)[O-])ccc1Cl [Example 75, N-(5-Chlorobenzoxazol-2-yl)-(2-chloro-5-nitrophenyl)carboxamide]
activity at 0.1 µM (24 h): 118%

O=C(Nc1ncc(Br)cn1)c1cc([N+](=O)[O-])ccc1Cl [Example 77, N-(5-Bromopyrimidin-2-yl)-(2-chloro-5-nitrophenyl)carboxamide]
activity at 1 µM (24 h): 113% | activity at 0.001 µM (24 h): 108% | activity at 0.01 µM (24 h): 110% | activity at 0.1 µM (24 h): 130%

O=C(Nc1nc(Cl)cc(Cl)n1)c1cc([N+](=O)[O-])ccc1Cl [Example 83, N-(4,6-Dichloropyrimidin-2-yl)-(2-chloro-5-nitrophenyl)carboxamide]
activity at 0.1 µM (24 h): 126%

Nc1ccc(-c2ccc(NC(=O)c3cc([N+](=O)[O-])ccc3Cl)cc2)cc1 [Example 88, N-[4-(4-Aminophenyl)phenyl]-(2-chloro-5-nitrophenyl)carboxamide mono-hydrochloride]
activity at 1 µM (24 h): 115% | activity at 0.1 µM (24 h): 119%

O=C(Nc1ccc(Cl)nn1)c1cc([N+](=O)[O-])ccc1Cl [Example 89]
Facilitating activity to produce leptin (24 hr): 123.2%

Cc1c(C)c2c(c(C)c1O)C(=O)CC(C)(COc1ccc(NC(=O)c3cc([N+](=O)[O-])ccc3Cl)cc1)O2 (stereo not shown) [Example 92, N-[4-(6-Hydroxy-2,5,7,8-tetramethyl-4-oxochroman-2-ylmethoxy)phenyl]-(2-chloro-5-nitrophenyl)carboxamide]
activity at 0.1 µM (24 h): 116%

CS(=O)(=O)Nc1ccc(-c2ccc(NC(=O)c3cc([N+](=O)[O-])ccc3Cl)cc2)cc1 [Example 93, N-[4-[4-(Methanesulfonylamino)phenyl]phenyl]-(2-chloro-5-nitrophenyl)carboxamide]
activity at 1 µM (24 h): 114%

Cc1ccc(S(=O)(=O)Nc2ccc(-c3ccc(NC(=O)c4cc([N+](=O)[O-])ccc4Cl)cc3)cc2)cc1 [Example 94, N-[4-[4-(4-Toluenesulfonylamino)phenyl]phenyl]-(2-chloro-5-nitrophenyl)carboxamide]
activity at 1 µM (24 h): 116% | activity at 0.1 µM (24 h): 110%

Cc1nnc(NS(=O)(=O)c2ccc(NC(=O)c3cc([N+](=O)[O-])ccc3Cl)cc2)s1 [Example 101, N-[4-[(5-Methyl-[1,3,4]thiadiazol-2-yl)aminosulfonyl]phenyl]-(2-chloro-5-nitrophenyl)carboxamide]
activity at 1 µM (24 h): 117%

CC(=O)Nc1ccc(-c2ccc(NC(=O)c3cc([N+](=O)[O-])ccc3Cl)cc2)cc1 [Example 118, N-[4-(4-Acetylaminophenyl)phenyl]-(2-chloro-5-nitrophenyl)carboxamide]
activity at 1 µM (24 h): 134% | activity at 0.001 µM (24 h): 114% | activity at 0.01 µM (24 h): 115% | activity at 0.1 µM (24 h): 127%

O=C(Nc1ccc(-c2ccc(NC(=O)c3cc([N+](=O)[O-])ccc3Cl)cc2)cc1)c1ccccc1 [Example 120, N-[4-(4-Benzoylaminophenyl)phenyl]-(2-chloro-5-nitrophenyl)carboxamide]
activity at 1 µM (24 h): 121% | activity at 0.001 µM (24 h): 108% | activity at 0.01 µM (24 h): 110% | activity at 0.1 µM (24 h): 119%

Cc1ccc(C(=O)Nc2ccc(NC(=O)c3cc([N+](=O)[O-])ccc3Cl)cc2)cc1 [Example 121, N-[4-(4-Methylbenzoyl)aminophenyl]-(2-chloro-5-nitrophenyl)carboxamide]
activity at 0.1 µM (24 h): 114%

O=C(Nc1ccc(-c2ccc(NC(=O)c3cc([N+](=O)[O-])ccc3Cl)cc2)cc1)c1cccnc1 [Example 124, N-[4-[4-(Pyridin-3-ylcarbonylamino)phenyl]phenyl]-(2-chloro-5-nitrophenyl)carboxamide]
activity at 1 µM (24 h): 124% | activity at 0.001 µM (24 h): 113% | activity at 0.01 µM (24 h): 113% | activity at 0.1 µM (24 h): 146%

O=C(Nc1ccc(-c2ccc(NC(=O)c3cc([N+](=O)[O-])ccc3Cl)cc2)cc1)c1ccncc1 [Example 126, N-[4-[4-(Pyridin-4-ylcarbonylamino)phenyl]phenyl]-(2-chloro-5-nitrophenyl)carboxamide]
activity at 1 µM (24 h): 142% | activity at 0.01 µM (24 h): 109% | activity at 0.1 µM (24 h): 121%

O=C(Nc1ccc(NS(=O)(=O)c2ccccc2)cc1)c1cc([N+](=O)[O-])ccc1Cl [Example 127, N-(4-Benzenesulfonylaminophenyl)-(2-chloro-5-nitrophenyl)carboxamide]
activity at 1 µM (24 h): 115%

CCS(=O)(=O)Nc1ccc(-c2ccc(NC(=O)c3cc([N+](=O)[O-])ccc3Cl)cc2)cc1 [Example 130, N-[4-(4-Ethanesulfonylaminophenyl)phenyl]-(2-chloro-5-nitrophenyl)carboxamide]
activity at 1 µM (24 h): 116% | activity at 0.1 µM (24 h): 123%

O=C(Nc1cnccn1)c1cc([N+](=O)[O-])ccc1Cl [Example 140, N-(Pyrazin-2-yl)-(2-chloro-5-nitrophenyl)carboxamide]
activity at 0.1 µM (24 h): 114%

Cl.O=C(Nc1ccncc1)c1cc([N+](=O)[O-])ccc1Cl [Example 146, N-(Pyridin-4-yl)-(2-chloro-5-nitrophenyl)carboxamide Hydrochloride]
activity at 1 µM (24 h): 126% | activity at 0.01 µM (24 h): 112% | activity at 0.1 µM (24 h): 138%

Cc1ccc(C(=O)Nc2nc3ccc(NC(=O)c4cc([N+](=O)[O-])ccc4Cl)cc3s2)cc1 [Example 149, N-[2-(4-Methylbenzoylamino)benzothiazol-6-yl]-(2-chloro-5-nitrophenyl)carboxamide]
activity at 1 µM (24 h): 117% | activity at 0.1 µM (24 h): 111%

O=C(Nc1ccc(S(=O)(=O)N2CCCCC2)cc1)c1cc([N+](=O)[O-])ccc1Cl [Example 151, N-[4-(Piperidyisulfonyl)phenyl]-(2-chloro-5-nitrophenyl)carboxamide]
activity at 1 µM (24 h): 113% | activity at 0.1 µM (24 h): 113%

O=C(Nc1ccc(S(=O)(=O)N2CCOCC2)cc1)c1cc([N+](=O)[O-])ccc1Cl [Example 153, N-[4-(Morpholin-4-ylsulfonyl)phenyl]-(2-chloro-5-nitrophenyl)carboxamide]
activity at 1 µM (24 h): 113%
